Literature values in patent US9828573B2, “Alcohol composition and derivatives thereof” (SHELL OIL COMPANY, priority 2015, dated 2017).

System: Proponibacterium acnes
Settings: Journal of Natural Products Vol. 57, No. 1, pp. 9-17, January 1994

For CCCCCCCCCCCCCCCO [Normal 1-pentadecanol, 1-pentadecanol], which “activity against Proponibacterium acnes” value is on record?
Its value is “specific activity”.
